Data reported in US6541237B1, “A-1,4-glucan lyase and its use in the production of 1.5-androfructose” (Danisco A/S, priority 1994, dated 2003).

Tests used:
[1] = Induction period of yogurt salad dressing with 50% oil
Text: For each temperature defined as PF=IP of the oil with added antioxidant/IP of the same oil without added antioxidant

Oxidation of AF by air = assay type: physicochemical; conditions: especially at high temperature, high AF concentration, long exposure
Text: Catalase is needed to dispel H2O2 formed. H2O2 will oxidize AF into two new compounds which are at present of unknown structure. The other impurities in the AF preparation are the oxidation products of AF. […] Gluconic acid was removed together with the buffer salts by ion exchange chromatography.

[2] = Induction period of 50% mayonnaise in bomb calorimeter; conditions: +500 ppm in mayonnaise; 80° C., pure O2
Experimental: In the test procedure the anti-oxidants were added to the mayonnaise to provide an anti-oxidant concentration in the order of about 500 ppm. The mayonnaise was then placed in a bomb calorimeter at temperature 80° C. containing pure O2. An induction period to the onset of substantial oxidation of the product is then measured.

[3] = Reduction of 3,5-dinitrosalicylic acid; assay type: physicochemical
[4] = ESR analysis of hydroxyl radical scavenging (Fenton reaction, DMPO spin trap); conditions: for Peak height of ESR-spectra [120 s] / Peak height of ESR-spectra [300 s]: H2O2 0.17 mM, Fe2+ 4.8 μM
Experimental: Hydroxyl radicals were generated by a Fenton reaction with H2O2 (0.17 mM) and FeSO4 (4.8 μM). The generated radicals were trapped by 5,5-dimethyl-1-pyrroline N-oxide (DMPO, 9.7 mM). AF was added in concentrations of 1.3 mM and 6.3 mM. A water soluble extract of rosemary (Rosmarinus officinalis L.) was analyzed in a concentration of 0.25 mg/ml (in grams equivalent to 1.26 mM AF). Measurements were carried out at room temperature (20±1° C.) after 120 s and repeated for the same reaction mixture after 300 s with the following spectrometer settings: Center field 3475.60 G; sweep width 55 G; microwave power 20 mW; modulation frequency 100 kHz; modulation amplitude 1.01 G; receiver gain 1.00·10^5; conversion time 81.92 ms time constant 163.84 ms and sweep time 83.89 s.
The spin adduct gives rise to a characteristic 1:2:2:1 ESR spectrum. The peak height of the spectrum is proportional to the quantitative amount of generated spin adduct. Addition of both DMPO and AF will set up a competition between the spin trap and AF. A reduction of peak height will indicate a good scavenging activity of AF.

[5] = Electrochemical oxygen consumption in methyl linoleate emulsion; conditions: AF 15, 146 and 680 μM; metmyoglobin initiated; 25.0° C.
Experimental: The activity of AF was investigated in a methyl linoleate emulsion as described by Jorgensen and Skibsted (Z. Lebensm. Unters. Forsch. (1993) 196: 423-429) with minor modifications: To 5.00 ml of a 1.33 mM methyl linoleate emulsion in 5.0 mM aqueous phosphate buffer with pH=5.8 and 0.2 w/w % Tween 20 as emulsifier was added AF in the following concentrations: 0, 15, 146 and 680 μM. The oxidation in the system was initiated by addition of 50 μl […] metmyoglobin (MMb) final concentration 0.26 mM. Immediately after initiating the reaction the sample was injected to a thermostated (25.0±0.1° C.) 70 μl closed cell, effectively excluding diffusion of oxygen into the system. The oxygen consumption was measured by a Clark electrode, which was connected to a PC data collection program. The relative oxygen concentration (%) was registered every 30 s.

α-1,4-glucan lyase = assay: Formation of AF from amylopectin (HPLC), end-product inhibition; assay type: biochemical; conditions: equal AF after 30 and 120 min incubation
Experimental: α-1,4-glucan lyase according to the present invention hydrolyses starch to the end-product 1,5-anhydrofructose. The end-product was shown by HPLC, method 2. The enzyme assay contained 500 μl amylopectin (20 mg/ml, dissolved in H2O), 400 μl 0.1 M MES pH 6.3 and 100 μl purified enzyme. The reaction mixture was incubated at 30° C. and the reaction was stopped by boiling after 30 or 120 min incubation. High-molecular oligosaccharides were precipitated by addition of 3 vol abs. ethanol and the sample was centrifuged and freeze-dried as described above. The samples were dissolved in 125 μl H2O and 25 μl were applied on the HPLC column.

O=C1CO[C@H](CO)[C@@H](O)[C@@H]1O [AF, 1,5-D-anhydrofructose]
IP hours (Induction Period) ([1]; 500 ppm in yogurt salad dressing): 39.5 h
PF (Protection Factor) ([1]; 500 ppm, IP with antioxidant / IP without): 1.06
oxidation by air-level of oxygen (Oxidation of AF by air): can slowly be oxidized
IP hours (Induction Period) [2]: 32,0 hours
reducing agent (antioxidant) activity [3]: can easily reduce 3,5-dinitrosalicylic acid
scavenging activity of hydroxyl radicals ([4]; 1.3 mM AF): no scavenging activity
Peak height of ESR-spectra [120 s] ([4]; 1.3 mM AF): 2634
Peak height of ESR-spectra [300 s] ([4]; 1.3 mM AF): 2545
scavenging activity of hydroxyl radicals ([4]; 6.3 mM AF): peak height is reduced
Peak height of ESR-spectra [120 s] ([4]; 6.3 mM AF): 1781
Peak height of ESR-spectra [300 s] ([4]; 6.3 mM AF): 1900
oxygen consumption curve [5]: lag-phase is observed
inhibition of enzyme activity by end-product (α-1,4-glucan lyase): not inhibited
